Data published in patent US20030013660A1, “Dioxolane analogs for improved inter-cellular delivery” (Shire BioChem Inc., priority 2000, published 2003).

Columns and labels:
Test in all cases: 3H-TdR (3H-thymidine) incorporation assay at 72 hr
[1] = tested on: SF-268; assay type: cell-based, Human; conditions: Homo sapiens, SF-268, read-out: IC50 SF-268 24 h, 24 h drug exposure, wash, another 48 hr; 3H-TdR incorporation at 72 hr
[2] = tested on: H-460; assay type: cell-based, Human; conditions: Homo sapiens, NCI-H460, read-out: IC50 H-460 24 h, 24 h drug exposure, wash, another 48 hr; 3H-TdR incorporation at 72 hr
[3] = tested on: MCF-7; assay type: cell-based, Human; conditions: Homo sapiens, MCF7, read-out: IC50 MCF-7 24 h, 24 h drug exposure, wash, another 48 hr; 3H-TdR incorporation at 72 hr
[4] = tested on: CCRF-CEM; assay type: cell-based; conditions: Homo sapiens, CCRF-CEM, read-out: IC50 CCRF-CEM 24 h, 24 h drug exposure, wash, another 48 hr; 3H-TdR incorporation at 72 hr
Protocol: (§1) Table of IC50 Values (μM) for Controls
(§2) Exposition of 24 hr to drug, wash, incubated for another 48 hr (total of 72 hr assay)
(§3) (3H-Thymidine Incorporation Assay)

[5] = tested on: CEM/dCK-; assay type: cell-based; conditions: for IC50: Homo sapiens, CCRF-CEM, read-out: IC50 CEM/dCK- 24 h, 24 h drug exposure, wash, another 48 hr, deoxycytidine kinase-deficient CCRF-CEM; for Factor* (Resistance Factor = Ratio of dCK- on Wild-type CCRF-CEM): ratio of IC50 CEM/dCK- to CCRF-CEM, 24 h
Protocol: as §1, §2, §3

## COc1ccc(C(OC[C@H]2OC[C@@H](n3ccc(N)nc3=O)O2)(c2ccccc2)c2ccc(OC)cc2)cc1 [Compound 123, 4-AMINO-1-{2-[BIS-(4- METHOXY-PHENYL)-PHENYL- METHOXYMETHYL]- [1,3]DIOXOLAN-4-YL}-1H- PYRIMIDIN-2-ONE]
[1]
  IC50: 2000 nM
[2]
  IC50: 1000 nM
[3]
  IC50: 1400 nM
[4]
  IC50: 870 nM
[5]
  IC50: 15000 nM
  Factor* (Resistance Factor = Ratio of dCK- on Wild-type CCRF-CEM): 17

## CC(C)c1ccc(NC(=O)OC[C@H]2OC[C@@H](n3ccc(NC(=O)OCc4ccccc4)nc3=O)O2)cc1 [Compound 124, {1-[2-(4-ISOPROPYL- PHENYLCARBAMOYLOXYMETHY L)-[1,3]DIOXOLAN-4-YL]- 2-OXO-1,2-DIHYDRO- PYRIMIDIN-4-YL}- CARBAMIC ACID BENZYL ESTER]
[1]
  IC50: 49000 nM
[2]
  IC50: 13000 nM
[3]
  IC50: 14000 nM
[4]
  IC50: 14000 nM
[5]
  IC50: 27000 nM
  Factor* (Resistance Factor = Ratio of dCK- on Wild-type CCRF-CEM): ˜2

## CC(C)(C)OC(=O)N(CCCCC(C)(C)C(=O)Nc1ccn([C@@H]2CO[C@H](CO)O2)c(=O)n1)Cc1ccccc1 [Compound 125, Benzyl-{5-[1-(2-hydroxymethyl-[1,3]dioxolan-4-yl)-2-oxo-1,2-dihydro-pyrimidin-4-ylcarbamoyl]-5-methyl-hexyl}-carbamic acid tert-butyl ester]
[1]
  IC50: 600 nM
[2]
  IC50: 240 nM
[3]
  IC50: 16 nM
[4]
  IC50: 72 nM
[5]
  IC50: 7000 nM
  Factor* (Resistance Factor = Ratio of dCK- on Wild-type CCRF-CEM): 97

## CCCCCCOC(=O)OC[C@H]1OC[C@@H](n2ccc(N)nc2=O)O1 [Compound 126, CARBONIC ACID 4-(4- AMINO-2-OXO-2H- PYRIMIDIN-1-YL)- [1,3]DIOXOLAN-2- YLMETHYL ESTER HEXYL ESTER]
[1]
  IC50: 8.5 nM
[2]
  IC50: 4.1 nM
[3]
  IC50: 2 nM
[4]
  IC50: 1.6 nM
[5]
  IC50: 13000 nM
  Factor* (Resistance Factor = Ratio of dCK- on Wild-type CCRF-CEM): 8,125

## CN(C)/C=N/c1ccn([C@@H]2CO[C@H](COC(=O)CC34CC5CC(CC(C5)C3)C4)O2)c(=O)n1 [Compound 129, (2S,4S)-2-(1″- ADMANTANEACETOXY)METHYL -4-(4′-N,N- DIMETHYLAMINOMETHYLENE- CYTOSIN-1′-YL)-1,3- DIOXOLANE]
[1]
  IC50: 200 nM
[2]
  IC50: 150 nM
[3]
  IC50: 20 nM
[4]
  IC50: 72 nM
[5]
  IC50: 15000 nM
  Factor* (Resistance Factor = Ratio of dCK- on Wild-type CCRF-CEM): 208

## CN(C)/C=N/c1ccn([C@@H]2CO[C@H](COC(=O)C(c3ccccc3)c3ccccc3)O2)c(=O)n1 [Compound 130, (2S,4S)-2-(2″- DIPHENYLACETOXYMETHYL)- 4-(4′-N,N- DIMETHYLAMINOMETHYLENE- CYTOSIN-1′-YL)-1,3- DIOXOLANE]
[1]
  IC50: 110 nM
[2]
  IC50: 58 nM
[3]
  IC50: 50 nM
[4]
  IC50: 57 nM
[5]
  IC50: 75000 nM
  Factor* (Resistance Factor = Ratio of dCK- on Wild-type CCRF-CEM): 1,316

## CC(C)C(NC(=O)OCc1ccccc1)C(=O)OC[C@H]1OC[C@@H](n2ccc(/N=C/N(C)C)nc2=O)O1 (stereo partly drawn) [Compound 131, (2S,4S)-2- (BENZYLOXYCARBONYL-L- VALINOXYMETHYL)-4-(4′- N,N- DIMETHYLAMINOMETHYLENE- CYTOSIN-1′-YL)-1,3- DIOXOLANE]
[1]
  IC50: 12 nM
[2]
  IC50: 110 nM
[3]
  IC50: 100 nM
[4]
  IC50: 21 nM
[5]
  IC50: 83000 nM
  Factor* (Resistance Factor = Ratio of dCK- on Wild-type CCRF-CEM): 3,952

## CN(C)/C=N/c1ccn([C@@H]2CO[C@H](COC(=O)C(C)(C)C)O2)c(=O)n1 [Compound 133, 2,2-Dimethyl-propionic acid 4-[4-(dimethylamino-methyleneamino)-2-oxo-2H-pyrimidin-1-yl]-[1,3]dioxolan-2-ylmethyl ester]
[1]
  IC50: 16 nM
[2]
  IC50: 21 nM
[3]
  IC50: 100 nM
[4]
  IC50: 27 nM
[5]
  IC50: 31000 nM
  Factor* (Resistance Factor = Ratio of dCK- on Wild-type CCRF-CEM): 1,148
